Usually IC50 stands for the concentration that gives 50% inhibition.

For eleven compounds, IC50 results are on record in patent US20260217687A1 (NeoPhore Limited, priority 2023, published 2026).

The assay addresses T1, recombinant N-terminal MLH1 (residues 15-340) (Homo sapiens, UniProt P40692).
T1 construct: recombinant N-terminal MLH1 (residues 15-340)
T1 sequence (P40692 15-340): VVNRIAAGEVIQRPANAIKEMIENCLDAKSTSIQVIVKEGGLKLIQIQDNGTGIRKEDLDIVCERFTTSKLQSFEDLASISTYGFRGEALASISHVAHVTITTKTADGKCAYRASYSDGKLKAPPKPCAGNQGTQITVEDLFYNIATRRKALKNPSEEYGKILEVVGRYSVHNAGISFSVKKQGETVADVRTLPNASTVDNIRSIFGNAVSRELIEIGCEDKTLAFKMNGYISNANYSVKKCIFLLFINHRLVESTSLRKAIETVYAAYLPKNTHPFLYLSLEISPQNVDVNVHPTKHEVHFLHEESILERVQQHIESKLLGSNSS
The experiment in a line: Fluorescence Polarisation Assay for MLH1. The format is binding. The note with it: 100 nM N-terminal MLH1, 5 nM probe compound. How it is done:
Fluorescence Polarisation Assay for MLH1
Test compounds, as 10 mM DMSO stocks, were dispensed into a 384-well Low Flange Black Flat Bottom Polystyrene Non-binding Surface plate (Corning®, item number 3575) using a Labcyte Echo acoustic liquid handler. […] 20 μL of a 2× solution (200 nM) of recombinant N-terminal MLH1 (residues 15-340) in assay buffer (25 mM HEPES, pH 7.5, 250 mM NaCl, 10 mM MgCl2, 0.01% Triton X-100, 5 mM Dithiothreitol) was added to all wells in columns 1-23 and 20 μL assay buffer was added to all wells in column 24 using an E1-ClipTip pipette (ThermoFisher). Plates were centrifuged for 1 minute at 250 xg and were incubated at room temperature for 30 minutes prior to the addition of 20 μL of 2×(10 nM) of 5-((5-(4-((2-(2-(Benzyloxy)-4,6-dihydroxybenzoyl)isoindolin-5-yl)methyl)piperazin-1-yl)pentyl)carbamoyl)-2-(6-(dimethylamino)-3-(dimethyliminio)-3H-xanthen-9-yl)benzoate (referred to hereinafter as “probe compound”) in assay buffer (prepared from a 1 mM DMSO stock) with an E1-ClipTip pipette (ThermoFisher). The final concentration of N-terminal MLH1 was 100 nM and the final concentration of the probe compound was 5 nM. Compound plates were centrifuged for 1 minute at 250 xg for 1 minute and immediately read on a PheraStar FSX (fitted with 384-well aperture spoon and 590 675 675 FP optic module). The gain and focus were adjusted before each plate was read so that the polarisation of a no enzyme control (column 24) was equal to 35 mP. Data were normalised against the no inhibitor controls (column 23) and no enzyme controls (column 24).
Background: Polarisation of emitted light reports the rotation of a fluorescent probe.

As for `O=C(c1c(O)cc(C(F)F)cc1OCc1ccccn1)N1CCc2cccc(N[C@H]3CCOC3)c2C1` [Example 4.10, (S)-(4-(Difluoromethyl)-2-hydroxy-6-(pyridin-2-ylmethoxy)phenyl)(8-((tetrahydrofuran-3-yl)amino)-3,4-dihydroisoquinolin-2(1H)-yl)methanone], the IC50 lay within 0.1 to 1 µM.

`COc1ccc(COc2cc(C(F)F)cc(O)c2C(=O)N2CCc3cccc(N[C@H]4CCOC4)c3C2)cc1` [Example 4.11, (S)-(4-(Difluoromethyl)-2-hydroxy-6-((4-methoxybenzyl)oxy)phenyl)(8-((tetrahydrofuran-3-yl)amino)-3,4-dihydroisoquinolin-2(1H)-yl)methanone]: the IC50 fell in the range of 0.1 to 1 µM.

Consider `CN1CC[C@H](Nc2cccc3c2CN(C(=O)c2c(O)cc(C(F)F)cc2OCc2ccccc2)C3)C1=O` [Example 4.12, (S)-3-((2-(2-(Benzyloxy)-4-(difluoromethyl)-6-hydroxybenzoyl)isoindolin-4-yl)amino)-1-methylpyrrolidin-2-one], for which the IC50 fell in the range of 0.1 to 1 µM.

On to `CN1CC[C@H](Nc2cccc3c2CN(C(=O)c2c(O)cc(C(F)F)cc2OCc2ccccc2)CC3)C1=O` [Example 4.13, (S)-3-((2-(2-(benzyloxy)-4-(difluoromethyl)-6-hydroxybenzoyl)-1,2,3,4-tetrahydroisoquinolin-8-yl)amino)-1-methylpyrrolidin-2-one], for which the IC50 lay in the range of 0.1 to 1 µM.

With `CN1CC[C@@H](Nc2cccc3c2CN(C(=O)c2c(O)cc(C(F)F)cc2OCc2ccccc2)C3)C1=O` [Example 4.14, (R)-3-((2-(2-(Benzyloxy)-4-(difluoromethyl)-6-hydroxybenzoyl)isoindolin-4-yl)amino)-1-methylpyrrolidin-2-one], the IC50 fell in the range of 0.1 to 1 µM.

As to `CN1CC[C@@H](Nc2cccc3c2CN(C(=O)c2c(O)cc(C(F)F)cc2OCc2ccccc2)CC3)C1=O` [Example 4.15, (R)-3-((2-(2-(Benzyloxy)-4-(difluoromethyl)-6-hydroxybenzoyl)-1,2,3,4-tetrahydroisoquinolin-8-yl)amino)-1-methylpyrrolidin-2-one], the half-maximal inhibitory concentration (IC50) lay within 0.1 to 1 µM.

For `O=C1OCCC1Nc1cccc2c1CN(C(=O)c1c(O)cc(C(F)F)cc1OCc1ccccc1)C2` (centres unmarked) [Example 4.16, 3-((2-(2-(Benzyloxy)-4-(difluoromethyl)-6-hydroxybenzoyl)isoindolin-4-yl)amino)dihydrofuran-2(3H)-one], the IC50 lay within 0.1 to 1 µM.

Take `O=C1OCCC1Nc1cccc2c1CN(C(=O)c1c(O)cc(C(F)F)cc1OCc1ccccc1)CC2` (centres unmarked) [Example 4.17, 3-((2-(2-(Benzyloxy)-4-(difluoromethyl)-6-hydroxybenzoyl)-1,2,3,4-tetrahydroisoquinolin-8-yl)amino) dihydrofuran-2(3H)-one]: the IC50 lay in the range of 0.1 to 1 µM.

For the compound `COc1cc2c(c(N[C@H]3CCOC3)c1)CN(C(=O)c1c(O)cc(C(F)F)cc1OCc1ccccc1)C2` [Example 4.18, (S)-(2-(Benzyloxy)-4-(difluoromethyl)-6-hydroxyphenyl)(6-methoxy-4-((tetrahydrofuran-3-yl)amino)isoindolin-2-yl)methanone], the IC50 lay in the range of 0.1 to 1 µM.

For `O=C(c1c(O)cc(C(F)F)cc1OCc1ccccc1)N1Cc2cc(Cn3ccnc3)cc(N[C@H]3CCOC3)c2C1` [Example 4.19, (S)-(6-((1H-Imidazol-1-yl)methyl)-4-((tetrahydrofuran-3-yl)amino)isoindolin-2-yl) (2-(benzyloxy)-4-(difluoromethyl)-6-hydroxyphenyl)methanone], the half-maximal inhibitory concentration (IC50) fell in the range of 0.1 to 1 µM.

For the compound `COc1cc2c(c(N[C@H]3CCOC3)c1)CN(C(=O)c1c(O)cc(C(F)F)cc1OCc1ccccc1)CC2` [Example 4.20, (S)-(2-(Benzyloxy)-4-(difluoromethyl)-6-hydroxyphenyl)(6-methoxy-8-((tetrahydrofuran-3-yl)amino)-3,4-dihydroisoquinolin-2(1H)-yl)methanone], the IC50 is 0.1 to 1 µM.
